Results: paper PMC7037682, “Herb–Drug Interaction of Red Ginseng Extract and Ginsenoside Rc with Valsartan in Rats” (Molecules, 2020)
Like-named read-outs stand apart in the source and are kept apart here.

Legend:
[1] = target: T1, OCT2 (Homo sapiens, UniProt O15244); assay: Inhibition of OCT2-mediated [3H]MPP+ uptake in HEK293-OCT2 cells
T1 sequence (O15244 1-555): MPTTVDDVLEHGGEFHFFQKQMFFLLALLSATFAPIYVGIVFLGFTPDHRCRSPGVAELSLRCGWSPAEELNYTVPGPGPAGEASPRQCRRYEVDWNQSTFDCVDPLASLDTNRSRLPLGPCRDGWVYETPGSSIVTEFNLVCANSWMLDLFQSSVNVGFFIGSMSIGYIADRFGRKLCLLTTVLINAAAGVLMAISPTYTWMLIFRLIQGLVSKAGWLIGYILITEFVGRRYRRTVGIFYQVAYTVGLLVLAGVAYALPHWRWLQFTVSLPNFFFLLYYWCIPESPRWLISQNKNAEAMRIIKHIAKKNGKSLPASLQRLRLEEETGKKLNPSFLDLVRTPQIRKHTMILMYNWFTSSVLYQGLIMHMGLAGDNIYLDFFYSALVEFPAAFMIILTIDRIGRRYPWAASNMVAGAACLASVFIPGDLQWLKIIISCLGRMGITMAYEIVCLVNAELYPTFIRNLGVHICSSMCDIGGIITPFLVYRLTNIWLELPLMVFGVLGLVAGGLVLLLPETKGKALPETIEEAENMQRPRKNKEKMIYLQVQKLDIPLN
Protocol: (§1) HEK293 cells overexpressing the OCT1, OCT2, OAT1, OAT3, OATP1B1, and OATP1B3 transporters (HEK293-OCT1, -OCT2, -OAT1, -OAT3, -OATP1B1, and -OATP1B3, respectively) and HEK293-mock cells (Corning Life Sciences; Woburn, MA, USA) were used and characterized as previously described.
(§2) HEK293 cells overexpressing drug transporters and HEK293-mock cells were seeded in poly-D-lysine-coated 96-well plates at a density of 10^5 cells/well and were cultured in DMEM supplemented with 10% FBS, 5 mM non-essential amino acids, and 2 mM sodium butyrate in a humidified atmosphere with 8% CO2 at 37 °C.
(§3) To examine the effects of ginsenosides and typical inhibitors on transporter activity, aliquots (100 μL) of HBSS containing the probe substrate and ginsenosides or typical inhibitors were added to the cells after aspirating pre-incubated HBSS. The concentrations and probe substrates were as follows: 0.1 μM [^3H]MPP^+ for OCT1 and OCT2, 0.1 μM [^3H]PAH for OAT1, 0.1 μM [^3H]ES for OAT3 and OATP1B1, and 0.1 μM [^3H]EG for OATP1B3. […] Then the uptake of probe substrates into HEK293-mock cells and HEK293-OCT1, -OCT2, -OAT1, -OAT3, -OATP1B1, and -OATP1B3 cells in the presence and absence of typical inhibitor or each ginsenoside with previously described concentration range was measured for 5 min. Immediately after placing the plates on ice, the cells were washed three times with 100 μL of ice-cold HBSS, followed by lysing with 50 μL of 10% SDS solution and mixing with 150 μL of Optiphase cocktail solution (Perkin Elmer Inc., Boston, MA, USA). The radioactivity of the probe substrates in the cells was determined using a liquid scintillation counter.
(§4) In the inhibition studies, the uptake rate of substrate by HEK293 cells overexpressing the respective transporters was used as the control (100%) and the uptake rate of substrates in the presence of typical inhibitors or ginsenosides expressed as a percentage of the control. The inhibition data were fitted to an inhibitory effect model using Sigma plot (version 10.0; Systat Software Inc., San Jose, CA, USA). IC50 value indicated the half-maximal inhibitory concentration of the inhibitor.

[2] = target: T2, OAT3 (Homo sapiens, UniProt Q8TCC7); assay: Inhibition of OAT3-mediated [3H]ES uptake in HEK293-OAT3 cells
T2 sequence (Q8TCC7 1-542): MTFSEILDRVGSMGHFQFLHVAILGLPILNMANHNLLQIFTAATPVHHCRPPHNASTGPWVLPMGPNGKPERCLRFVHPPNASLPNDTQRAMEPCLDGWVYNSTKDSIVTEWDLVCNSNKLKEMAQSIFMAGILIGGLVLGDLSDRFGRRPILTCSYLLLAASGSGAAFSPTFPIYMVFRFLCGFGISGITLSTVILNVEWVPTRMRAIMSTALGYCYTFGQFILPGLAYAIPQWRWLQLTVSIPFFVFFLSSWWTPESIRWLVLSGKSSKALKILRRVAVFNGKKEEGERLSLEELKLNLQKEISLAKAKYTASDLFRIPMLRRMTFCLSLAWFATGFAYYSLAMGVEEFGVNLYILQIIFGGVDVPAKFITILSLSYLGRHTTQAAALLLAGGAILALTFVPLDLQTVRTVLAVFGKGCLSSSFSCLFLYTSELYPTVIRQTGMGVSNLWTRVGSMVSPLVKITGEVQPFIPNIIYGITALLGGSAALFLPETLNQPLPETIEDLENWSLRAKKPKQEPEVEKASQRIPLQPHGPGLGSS
Protocol: as §1, §2, §3, §4

[3] = Plasma pharmacokinetics of ginsenosides in rats after 1-week repeated RGE; details: for maximum plasma concentration (molar): after RGE 1.5 g/kg/day po for 7 days; for detection in rat plasma: LC-MS/MS
Protocol: The rats were randomly divided into the control and RGE groups. The RGE group received a RGE suspension (1.5 g/mL/kg/day, in distilled water) for 7 days via oral gavage. The control group received distilled water for 7 days via oral gavage. After 1 h following the last RGE treatment, valsartan was injected intravenously to both groups via the tail vein at 1 mg/mL/kg (dissolved in DMSO: saline = 2:8, v/v). […] After centrifugation of the blood samples at 16,000× g for 10 min, aliquots (50 μL each) of plasma samples were stored at −80 °C until the analysis of ginsenosides and valsartan.
The residue was reconstituted with 100 μL of 70% methanol consisting of 0.1% formic acid. An aliquot (20 μL) from the sample was injected into the LC-MS/MS system.
After freezing the aqueous layer at −80 °C for 2 h, the upper organic layer was transferred to a clean tube and evaporated to dryness. […] An aliquot (20 μL) from the sample was injected into the LC-MS/MS system. The samples were eluted through an Omega Polar C18 column (2.1 mm × 100 mm, 3 µm particle size) (Phenomenex, Torrance, CA, USA) using a mobile phase consisting of 0.1% formic acid in water: 0.1% formic acid in methanol (15:85, v/v) at a flow rate of 0.2 mL/min.
Pharmacokinetic parameters were calculated from plasma concentration-time profile using non-compartment analysis of WinNonlin (version 5.1; Pharsights, Cary, NC, USA). The statistical significance was assessed by t-test using Statistical Package for the Social Sciences (version 24.0; SPSS Inc., Chicago, IL, USA).

[4] = after RGE 1.5 g/kg/day po for 1 week
[5] = read-out: IC50 OCT2, HEK293-OCT2, 0.1 μM [3H]MPP+ uptake, 5 min
[6] = read-out: IC50 OAT3, HEK293-OAT3, 0.1 μM [3H]ES uptake, 5 min
[7] = rat plasma, 0 to 48 h, after RGE 1.5 g/kg/day po for 1 week
[8] = rat plasma, after RGE 1.5 g/kg/day po for 1 week

Compound	IC50 [1]	IC50 [2]	maximum plasma concentration (molar) ([3]; rat plasma)	AUC ([3]; rat, plasma, po, 1.5 g/kg/day)	Cmax ([3]; rat, plasma, po, 1.5 g/kg/day)	MRT ([3]; rat, plasma, po, 1.5 g/kg/day)	Tmax ([3]; rat, plasma, po, 1.5 g/kg/day)	half-life ([3]; rat, plasma, po, 1.5 g/kg/day)	detection in rat plasma [3, 4]	IC50 [1, 5]	IC50 [2, 6]	AUC [3, 7]	Cmax [3, 8]	MRT [3, 8]	T1/2 [3, 8]	Tmax [3, 8]
CC(C)=CCC[C@](C)(O[C@@H]1O[C@H](CO[C@@H]2O[C@@H](CO)[C@H](O)[C@H]2O)[C@@H](O)[C@H](O)[C@H]1O)[C@H]1CC[C@]2(C)[C@@H]1[C@H](O)C[C@@H]1[C@@]3(C)CC[C@H](O[C@@H]4O[C@H](CO)[C@@H](O)[C@H](O)[C@H]4O[C@@H]4O[C@H](CO)[C@@H](O)[C@H](O)[C@H]4O)C(C)(C)[C@@H]3CC[C@]12C [Rc, ginsenoside Rc]	> 100 µM	> 100 µM	10.6 nM	321 ± 97.2 ng·h/mL	11.7 ± 2.49 ng/mL	18.4 ± 1.89 h	3.33 ± 1.15 h	24.2 ± 7.51 h	–	–	–	–	–	–	–	–
CC(C)=CCC[C@](C)(O[C@@H]1O[C@H](CO)[C@@H](O)[C@H](O)[C@H]1O)[C@H]1CC[C@]2(C)[C@@H]1[C@H](O)C[C@@H]1[C@@]3(C)CC[C@H](O[C@@H]4O[C@H](CO)[C@@H](O)[C@H](O)[C@H]4O[C@@H]4O[C@H](CO)[C@@H](O)[C@H](O)[C@H]4O)C(C)(C)[C@@H]3CC[C@]12C [Rd, ginsenoside Rd]	> 100 µM	> 100 µM	5.3 nM	164 ± 39.1 ng·h/mL	5.1 ± 0.74 ng/mL	20.8 ± 1.68 h	2.17 ± 1.76 h	43.5 ± 17.5 h	–	–	–	–	–	–	–	–
CC(C)=CCC[C@](C)(O[C@@H]1O[C@H](CO[C@@H]2OC[C@H](O)[C@H](O)[C@H]2O)[C@@H](O)[C@H](O)[C@H]1O)[C@H]1CC[C@]2(C)[C@@H]1[C@H](O)C[C@@H]1[C@@]3(C)CC[C@H](O[C@@H]4O[C@H](CO)[C@@H](O)[C@H](O)[C@H]4O[C@@H]4O[C@H](CO)[C@@H](O)[C@H](O)[C@H]4O)C(C)(C)[C@@H]3CC[C@]12C [Rb2, ginsenoside Rb2]	> 100 µM	> 100 µM	9.1 nM	283 ± 58.9 ng·h/mL	10 ± 1.04 ng/mL	18.6 ± 1.43 h	3.33 ± 1.15 h	30.2 ± 5.48 h	–	–	–	–	–	–	–	–
CC(C)=CCC[C@](C)(O[C@@H]1O[C@H](CO)[C@@H](O)[C@H](O)[C@H]1O)[C@H]1CC[C@]2(C)[C@@H]1[C@H](O)C[C@@H]1[C@@]3(C)CC[C@H](O)C(C)(C)[C@@H]3[C@@H](O[C@@H]3O[C@H](CO)[C@@H](O)[C@H](O)[C@H]3O[C@@H]3O[C@@H](C)[C@H](O)[C@@H](O)[C@H]3O)C[C@]12C [Re, ginsenoside Re]	> 100 µM	> 100 µM	–	–	–	–	–	–	not detected	–	–	–	–	–	–	–
CC(C)=CCC[C@](C)(O)[C@H]1CC[C@]2(C)[C@@H]1[C@H](O)C[C@@H]1[C@@]3(C)CC[C@H](O[C@@H]4O[C@H](CO)[C@@H](O)[C@H](O)[C@H]4O)C(C)(C)[C@@H]3CC[C@]12C [Rh2, ginsenoside Rh2]	> 100 µM	> 100 µM	–	–	–	–	–	–	not detected	–	–	–	–	–	–	–
CC(C)=CCC[C@](C)(O)[C@H]1CC[C@]2(C)[C@@H]1[C@H](O)C[C@@H]1[C@@]3(C)CC[C@H](O)C(C)(C)[C@@H]3[C@@H](O)C[C@]12C [PPT, protopanaxatriol]	–	–	38.5 nM	–	–	–	–	–	detected	> 100 µM	> 100 µM	429.91 ± 105.75 ng·h/mL	16.97 ± 8.99 ng/mL	23.12 ± 2.26 h	46.38 ± 13.27 h	16.50 ± 12.48 h
CC(C)=CCC[C@](C)(O[C@@H]1O[C@H](CO[C@@H]2O[C@H](CO)[C@@H](O)[C@H](O)[C@H]2O)[C@@H](O)[C@H](O)[C@H]1O)[C@H]1CC[C@]2(C)[C@@H]1[C@H](O)C[C@@H]1[C@@]3(C)CC[C@H](O[C@@H]4O[C@H](CO)[C@@H](O)[C@H](O)[C@H]4O[C@@H]4O[C@H](CO)[C@@H](O)[C@H](O)[C@H]4O)C(C)(C)[C@@H]3CC[C@]12C [Rb1, ginsenoside Rb1]	> 100 µM	> 100 µM	–	455 ± 111 ng·h/mL	17.8 ± 2.34 ng/mL	17.1 ± 2.09 h	3.33 ± 1.15 h	16.9 ± 5.81 h	–	–	–	–	–	–	–	–
CC(C)=CCC[C@](C)(O)[C@H]1CC[C@]2(C)[C@@H]1[C@H](O)C[C@@H]1[C@@]3(C)CC[C@H](O)C(C)(C)[C@@H]3[C@@H](O[C@@H]3O[C@H](CO)[C@@H](O)[C@H](O)[C@H]3O)C[C@]12C [Rh1, ginsenoside Rh1]	> 100 µM	> 100 µM	–	–	–	–	–	–	not detected	–	–	–	–	–	–	–
CC(C)=CCCC(C)(O)[C@H]1CC[C@]2(C)[C@@H]1[C@H](O)C[C@@H]1[C@@]3(C)CC[C@H](O)C(C)(C)[C@@H]3CC[C@]12C (stereo in doubt) [PPD, protopanaxadiol]	–	–	48.4 nM	–	–	–	–	–	detected	> 100 µM	> 100 µM	542.01 ± 141.09 ng·h/mL	20.56 ± 9.47 ng/mL	21.56 ± 3.31 h	26.95 ± 18.33 h	16.50 ± 12.48 h
